According to ChEMBL document CHEMBL4627253, “Relationship among structure, cytotoxicity, and Michael acceptor reactivity of quinocidin” (Bioorg Med Chem, 2020):

What follows are compounds tested on HeLa S3 (assay: Cytotoxicity against human HeLaS3 cells assessed as cell growth incubated for 48 hrs by MTT assay). Conditions: HeLa S3, 48 h.
Format: functional, cell-based

Row | SMILES | IC50 [nM]
1 | CCCCCC/C=C/c1c(C)cc(C)c2[n+]1CC(C)C=C2 (stereo not drawn) | 170
2 | CCCC/C=C(\C)c1nc(/C=C\C(C)C)c(C)cc1C | > 30000
3 | CNC(=O)CCCCCc1c(C)cc(C)c2[n+]1CC(C)C=C2 (stereo not drawn) | > 30000
4 | CCCCCCc1c(C)cc(C)c2[n+]1CC(C)C=C2 (stereo not drawn) | 470
5 | CCCC/C=C/c1c(C)cc(C)c2[n+]1CC(C)CC2 (stereo not drawn) | 580
6 | CCCCCCCCCC/C=C/c1c(C)cc(C)c2[n+]1CC(C)C=C2 (stereo not drawn) | 52
7 | CCCCCCCCCCCCCC/C=C/c1c(C)cc(C)c2[n+]1CC(C)C=C2 (stereo not drawn) | 58
8 | CC/C=C/c1c(C)cc(C)c2[n+]1CC(C)C=C2 (stereo not drawn) | 2000
9 | CCCC/C=C(\C)c1c(C)cc(C)c2[n+]1CCC=C2 | 680
10 | CCCCCCCCCCCC/C=C/c1c(C)cc(C)c2[n+]1CC(C)C=C2 (stereo not drawn) | 38
11 | CCCC/C=C/c1c(C)cc(C)c2[n+]1CC(C)C=C2 (stereo not drawn) | 370
12 | CCCC/C=C(\C)c1c(C)cc(C)c2[n+]1CC(C)CC2 (stereo not drawn) | 360
13 | CCCC/C=C(\C)c1c(C)cc(C)c2[n+]1CC(C)C=C2 (stereo not drawn) | 640
14 | CCCC/C=C(\C)c1c(C)cc(C)c[n+]1CCCC | 720
15 | CCCCCCCC/C=C/c1c(C)cc(C)c2[n+]1CC(C)C=C2 (stereo not drawn) | 51

The compounds below were run on HeLa S3 (assay: Cytotoxicity against human HeLaS3 cells assessed as reduction in cell viability). Conditions: not given.
Format: functional, cell-based

Row | SMILES | IC50 [nM]
16 | C1=Cc2cccc[n+]2CC1 | > 30000

These compounds were tested on HEK293 (assay: Cytotoxicity against HEK293 cells assessed as cell growth incubated for 48 hrs by MTT assay). Conditions: Homo sapiens, HEK293, 48 h.
Format: cell-based

Row | SMILES | IC50 [nM]
17 | CNC(=O)CCCCCc1c(C)cc(C)c2[n+]1CC(C)C=C2 (stereo not drawn) | > 30000
18 | CCCC/C=C(\C)c1c(C)cc(C)c2[n+]1CC(C)C=C2 (stereo not drawn) | 1700
